The NIST ThermoML archive (doi:10.1016/j.jct.2018.11.005)

Conditions: Liquid; for speed of sound: Frequency=5 MHz, Single path-length method; for mass density: Vibrating tube method

CCC(=O)[O-].CC[NH2+]CCO [N-ethyl-2-hydroxyethylammonium propionate]
Conditions	mass density [kg/m3]	speed of sound [m/s]
323.15 K, 19000 kPa	–	1579.6
323.15 K, 20000 kPa	1035.2	1583.7
323.15 K, 25000 kPa	1037.2	–
323.15 K, 30000 kPa	1039.3	–
323.15 K, 35000 kPa	1041.5	–
323.16 K, 10000 kPa	1030.5	–
333.14 K, 10000 kPa	1018	–
333.15 K, 100 kPa	–	1485.5
333.15 K, 1000 kPa	–	1489.2
333.15 K, 2000 kPa	–	1494.2
333.15 K, 3000 kPa	–	1497.9
333.15 K, 4000 kPa	–	1500.5
333.15 K, 5000 kPa	–	1503
333.15 K, 6000 kPa	–	1508
333.15 K, 7000 kPa	–	1511.8
333.15 K, 8000 kPa	–	1514.4
333.15 K, 9000 kPa	–	1519.4
333.15 K, 10000 kPa	–	1523.2
333.15 K, 11000 kPa	–	1525.8
333.15 K, 12000 kPa	–	1530.9
333.15 K, 13000 kPa	–	1533.5
333.15 K, 14000 kPa	–	1536.1
333.15 K, 15000 kPa	1021	1540
333.15 K, 16000 kPa	–	1542.6
333.15 K, 17000 kPa	–	1546.5
333.15 K, 18000 kPa	–	1550.4
333.15 K, 19000 kPa	–	1553
333.15 K, 20000 kPa	–	1555.6
333.15 K, 30000 kPa	1028.8	–
333.15 K, 35000 kPa	1031.3	–
333.16 K, 100 kPa	1011.9	–
333.16 K, 20000 kPa	1023.7	–
333.16 K, 25000 kPa	1026.2	–
343.14 K, 15000 kPa	1008.7	–
343.14 K, 25000 kPa	1014.3	–
343.15 K, 100 kPa	–	1450.5
343.15 K, 1000 kPa	–	1454.2
343.15 K, 2000 kPa	–	1458
343.15 K, 3000 kPa	–	1461.8
343.15 K, 4000 kPa	–	1466.7
343.15 K, 5000 kPa	–	1470.5
343.15 K, 6000 kPa	–	1474.3
343.15 K, 7000 kPa	–	1478.1
343.15 K, 8000 kPa	–	1481.9
343.15 K, 9000 kPa	–	1485.7
343.15 K, 10000 kPa	–	1489.5
343.15 K, 11000 kPa	–	1493.3
343.15 K, 12000 kPa	–	1497.2
343.15 K, 13000 kPa	–	1501
343.15 K, 14000 kPa	–	1504.8
343.15 K, 15000 kPa	–	1507.4
343.15 K, 16000 kPa	–	1511.2
343.15 K, 17000 kPa	–	1516.3
343.15 K, 18000 kPa	–	1520.1
343.15 K, 19000 kPa	–	1524
343.15 K, 20000 kPa	–	1526.6
343.17 K, 100 kPa	998.8	–
343.17 K, 10000 kPa	1004.6	–
343.17 K, 30000 kPa	1017.4	–
343.19 K, 35000 kPa	1020.1	–
343.21 K, 20000 kPa	1011.2	–
353.15 K, 100 kPa	–	1416
353.15 K, 1000 kPa	–	1419.9
353.15 K, 2000 kPa	–	1423.8
353.15 K, 3000 kPa	–	1428.9
353.15 K, 4000 kPa	–	1434
353.15 K, 5000 kPa	–	1438
353.15 K, 6000 kPa	–	1443.1
353.15 K, 7000 kPa	–	1447
353.15 K, 8000 kPa	–	1451
353.15 K, 9000 kPa	–	1456.1
353.15 K, 10000 kPa	–	1460
353.15 K, 11000 kPa	–	1465.1
353.15 K, 12000 kPa	–	1469
353.15 K, 13000 kPa	–	1471.8
353.15 K, 14000 kPa	–	1476.9
353.15 K, 15000 kPa	–	1480.8
353.15 K, 16000 kPa	–	1484.7
353.15 K, 17000 kPa	–	1488.6
353.15 K, 18000 kPa	–	1492.5
353.15 K, 19000 kPa	–	1496.4
353.15 K, 20000 kPa	–	1500.2
